Laboratory results from the NIST ThermoML archive (doi:10.1021/je800579j).

Assay: xn = mol fraction of the nth substance listed
Settings: Liquid, Pycnometric method

Cc1cc(C)cc(C)c1 [1,3,5-trimethylbenzene] + C1COCCO1
mass density [kg/m3]
Settings	288.15 K	293.15 K	298.15 K	303.15 K	308.15 K	313.15 K	318.15 K
x2 = 0	869.28	865.37	861.45	857.54	853.63	849.71	845.8
x2 = 0.0696	876.28	872.24	868.2	864.16	860.13	856.1	852.07
x2 = 0.1408	883.83	879.67	875.52	871.37	867.22	863.07	858.92
x2 = 0.2098	891.62	887.36	883.1	878.84	874.59	870.34	866.09
x2 = 0.28	900.04	895.68	891.32	886.96	882.6	878.25	873.9
x2 = 0.3558	909.87	905.4	900.93	896.46	892	887.54	883.08
x2 = 0.4276	919.97	915.4	910.83	906.26	901.7	897.14	892.58
x2 = 0.5066	932.03	927.35	922.67	917.99	913.32	908.65	903.98
x2 = 0.5801	944.34	939.54	934.74	929.94	925.14	920.34	915.54
x2 = 0.6548	957.96	953.01	948.06	943.12	938.18	933.25	928.32
x2 = 0.7227	971.44	966.36	961.28	956.21	951.14	946.07	941
x2 = 0.7936	986.75	981.51	976.27	971.04	965.81	960.58	955.35
x2 = 0.8663	1003.78	998.39	993	987.61	982.23	976.85	971.47
x2 = 0.9319	1020.49	1014.96	1009.43	1003.91	998.39	992.87	987.35

Cc1cccc(C)c1 [1,3-dimethylbenzene] + C1COCCO1
mass density [kg/m3]
Settings	288.15 K	293.15 K	298.15 K	303.15 K	308.15 K	313.15 K	318.15 K
x2 = 0	868.59	864.31	860.02	855.74	851.45	847.17	842.88
x2 = 0.0938	879.61	875.2	870.79	866.38	861.97	857.56	853.16
x2 = 0.1532	886.95	882.46	877.97	873.48	868.99	864.5	860.01
x2 = 0.2046	893.54	888.98	884.42	879.87	875.32	870.77	866.22
x2 = 0.2698	902.26	897.62	892.98	888.35	883.72	879.09	874.47
x2 = 0.3374	911.76	907.05	902.34	897.63	892.92	888.21	883.5
x2 = 0.4002	921.05	916.26	911.47	906.68	901.9	897.12	892.34
x2 = 0.4714	932.18	927.3	922.42	917.55	912.68	907.81	902.94
x2 = 0.5487	945	940.02	935.04	930.06	925.08	920.1	915.12
x2 = 0.63	959.44	954.33	949.22	944.11	939.01	933.91	928.81
x2 = 0.7182	976.23	970.98	965.73	960.49	955.25	950.01	944.77
x2 = 0.8035	993.74	988.36	982.98	977.6	972.23	966.86	961.5
x2 = 0.8708	1008.47	1002.99	997.51	992.03	986.56	981.09	975.62
x2 = 0.9324	1022.71	1017.15	1011.59	1006.03	1000.48	994.93	989.38
